Experimental findings from publication PMC9878342, “Gossypol acetate: A natural polyphenol derivative with antimicrobial activities against the essential cell division protein FtsZ” (Frontiers in Microbiology, 2023) are described below.

The target of the test is T1, FtsZ (SaFtsZ) (Staphylococcus aureus, UniProt P0A031).
T1 construct: 6× His-FtsZ (N-terminal 6× His tag)
T1 sequence (P0A031 1-390): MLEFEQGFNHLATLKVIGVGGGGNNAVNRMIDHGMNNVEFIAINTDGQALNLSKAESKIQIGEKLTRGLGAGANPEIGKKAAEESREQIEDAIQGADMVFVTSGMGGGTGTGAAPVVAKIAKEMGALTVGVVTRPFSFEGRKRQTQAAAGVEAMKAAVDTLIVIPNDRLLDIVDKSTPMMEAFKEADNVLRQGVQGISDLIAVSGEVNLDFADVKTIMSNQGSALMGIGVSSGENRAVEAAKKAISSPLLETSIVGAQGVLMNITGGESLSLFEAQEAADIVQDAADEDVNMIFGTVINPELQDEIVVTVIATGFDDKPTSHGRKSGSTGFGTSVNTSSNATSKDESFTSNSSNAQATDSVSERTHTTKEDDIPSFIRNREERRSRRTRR
The test is described as follows: isothermal titration calorimetry; also GTPase inhibition and […]° light scattering. The class given is binding. Background: In ITC the heat of successive injections is recorded.

Structures are written as SMILES.

As usually defined, the Kd is the concentration at which binding is half-saturated. `Cc1cc2c(C(C)C)c(O)c(O)c(C=O)c2c(O)c1-c1c(C)cc2c(C(C)C)c(O)c(O)c(C=O)c2c1O` [S2303, Gossypol acetate] returned a Kd of 3.6 ± 0.7 µM.
